Experimental data as given in patent US20090181980A1, “Synergistic Pharmaceutical Composition” (priority 2006, published 2009).

Test system: M. tuberculosis
Assay: MIC alone and in combination (synergy test)
Format: cell-based, Mycobacterium tuberculosis
Details: for change of MIC when tested together: combination of Ethambutol and Isoniazid (negative control, FIG. 2)
Procedure: A sulfonylurea ALS inhibitor and a triazolopyrimidine ALS inhibitor were tested alone and in combination with Rifampicin. The positive controls used were Isoniazid and Streptomycin where one finds a synergistic action. The individual MICs of Isoniazid (INH) and Streptomycin (Strep) are 0.03 and 1.0 μg/ml respectively. When used in combination, these values drop to 0.0075 and 0.12 μg/ml respectively (cf. FIG. 1). This is 4 fold and 8 fold less.
The negative control used was a combination of Ethambutol (Etham) and Isoniazid (Inh) where there is no synergistic activity. […] In. Clinical Microbiology Procedures Handbook; Vol. 1-2 by Isenberg, Henry. D. Ed Washington D.C.; American Society for Microbiology/1992; Pages 5.18.1 to 5.18.28).
When used in combination, these MICs drop 0.0038 and 0.03 ug/ml respectively, which is 8-fold less for both the drugs.
When used in combination, these MICs drop to 0.0038 & 0.03 ug/ml which is 4 & 8-fold less for both the drugs.

[1] = combination of Isoniazid and Streptomycin versus individual MIC

Row | SMILES | fold less MIC in combination [1] [fold] | change of MIC when tested together | fold less MIC in combination (combination of Rifampicin and SU versus individual MIC) [fold] | fold less MIC in combination (combination of Rifampicin and TP versus individual MIC) [fold]
1 | [H]/N=C(/N)N[C@H]1[C@H](O)[C@@H](O)[C@H](O[C@@H]2O[C@@H](C)[C@](O)(C=O)[C@H]2O[C@@H]2O[C@@H](CO)[C@H](O)[C@@H](O)[C@@H]2NC)[C@@H](N/C(N)=N\[H])[C@@H]1O [Streptomycin] | 8 |  |  | 
2 | CC[C@@H](CO)NCCN[C@@H](CC)CO [Ethambutol] |  | do not drop significantly |  | 
3 | CO[C@H]1/C=C/O[C@@]2(C)Oc3c(C)c(O)c4c(O)c(c(/C=N/N5CCN(C)CC5)c(O)c4c3C2=O)NC(=O)/C(C)=C\C=C\[C@H](C)[C@H](O)[C@@H](C)[C@@H](O)[C@@H](C)[C@H](OC(C)=O)[C@@H]1C [Rifampicin] |  |  | 8 | 4
4 | NNC(=O)c1ccncc1 [Isoniazid] | 4 | do not drop significantly |  | 
